Data from article PMC8434134, “Biflavonoids from Selaginella doederleinii as Potential Antitumor Agents for Intervention of Non-Small Cell Lung Cancer” (Molecules, 2021).

How the values were obtained:
A549 cells [1] = assay: MTT antiproliferative assay, A549; format: cell-based, human; conditions: mean of n = 3
From the text: (§1) To evaluate the anti-NSCLC activity of compounds 1–5, we tested their inhibitory effect on the proliferation of two NSCLC cell lines (A549 and H1299) as well as human normal embryonic lung cell line MRC-5 by the MTT assay using Cis-platin (DDP) as a positive control. […] Among them, compounds 1–3 were further studied for their potential apoptosis-mediated death of A549 cells because of their promising antiproliferative activity against NSCLC cells.
(§2) Human lung carcinoma cell lines (A549), human lung adenocarinoma epithelial cell lines (H1299) and human normal embryonic lung cell lines (MRC-5) were purchased from the Chinese Academy of Sciences (Shanghai). H1299 and MRC-5 cells were maintained in RPMI1640 medium, and A549 cell lines were maintained in MEN medium. Both media were supplemented with 10% fetal bovine serum. All of the cell lines were grown at 37 °C in a 5% CO2 atmosphere. The cell lines mentioned above were checked for mycoplasma contamination, and no contamination was observed.
(§3) Cytotoxicity of test compounds was assessed by the MTT assay. A549, H1299 and MRC-5 cells at a final density (3000 cells/well) were placed in 96-well cell plates and treated with or without different concentrations of the test compounds for 24 h. At the end of the treatment, 3-(4,5-dimethyl-2-thiazolyl)-2,5-diphenyl-2-H-tetrazolium bromide (MTT, […], 5 mg/mL) was added into each well, and the cells were further incubated for 4 h. The resulting formazan crystals were dissolved in […] of DMSO and the absorbance was read spectrophotometrically at 570 nm using an enzyme-linked immunosorbent assay plate reader. Experiments were conducted in triplicate. Inhibition rate (%) = [(Acontrol − Atreated)/Acontrol] × 100%. IC50 value represents the half of maximal inhibitory concentration.

H1299 cells = assay: MTT antiproliferative assay, H1299; format: cell-based, human; conditions: mean of n = 3
From the text: as §1, §2, §3

MRC-5 cells = assay: MTT cytotoxicity assay, non-cancer MRC-5; format: cell-based; conditions: mean of n = 3, non-cancer cells
From the text: as §1, §2, §3

caspase-3 = assay: Western blot, caspase-3 level in A549 cells; format: cell-based, human; conditions: 3 μM, 24 h, β-actin as control
Procedure: (§4) Furthermore, to elucidate the mechanism underlying the apoptosis-inducing activity of compounds 1–3, we examined their regulatory effect on the expression of caspase-3/cleaved-caspase-3, which are hallmarks of apoptosis.
(§5) A549 cells (1 × 10^5/well) were cultured in six-well plates overnight and treated in triplicate with vehicle DMSO (0.1%, v/v) alone, or with indicated compound at 3 μM for 24 h. The cells were harvested and lysed with cell lysis buffer containing protease and phosphatase inhibitor cocktails (Beyotime, Shanghai, China). The concentrations of protein were determined using a BCA protein assay kit (Beyotime, Shanghai, China) and equalized before loading. Samples were denatured and subjected to SDS-PAGE gels followed by transfer to PVDF membrane and probed with specific antibodies against cleaved caspase-3, caspase-3, survivin, XIAP, β-actin, and GAPDH (Abcam, Shanghai, China), and then incubated with the secondary antibodies diluted in TBST. Finally, the protein bands were detected with ECL Western Blotting Kit according to the manufacturer’s specifications. Eventually, films were obtained and the light density of the target bar was analyzed by Image J software.

cleaved caspase-3 = assay: Western blot, cleaved caspase-3 level in A549 cells; format: cell-based, human; conditions: 3 μM, 24 h, β-actin as control
Procedure: as §4, §5

A549 cells [2] = assay: FITC-Annexin V/PI apoptosis assay by flow cytometry; format: cell-based, human; conditions: 3 μM, 24 h
Procedure: Subsequently, to further verify the apoptosis induction potential of compounds 1–3, quantification of Annexin V-FITC/PI double positive cells was performed using flow cytometry analysis. A549 cells were incubated with indicated compounds, and the percentages of apoptotic A549 cells were determined by FITC-Annexin V and PI staining and flow cytometry.
Cells were incubated in six-well plates (1 × 10^5/well) and treated with vehicle control (i.e., 1% DMSO in buffer) or compounds 1–3 at 3 μM for 24 h, respectively. The collected cells were harvested, washed with PBS, and then stained with FITC-Annexin-V and PI. Apoptosis was determined with flow cytometry.

A549 cells [3] = assay: Cell cycle analysis, PI staining and flow cytometry; format: cell-based, human; conditions: 24 h
Procedure: In addition to apoptosis, the induction of cell cycle arrest is an important means to control the growth and development of cancer cells. To investigate whether 3 suppressed the cells’ growth by arresting the cell cycle, we performed the experiment where cell cycle distribution was analyzed with flow cytometry after staining the DNA with propidium iodide (PI).
A549 cells were treated with vehicle control (i.e., 1% DMSO in buffer) or compound 3 at indicated concentration for 24 h, respectively. The cells were harvested, washed, then fixed with 70% ethanol at −20 °C for 8 h, and incubated with PI/RNase staining buffer (BD Pharmingen) for 15 min at room temperature (25 °C). The DNA content in the different groups of cells was assessed with flow cytometry and analyzed by the software MODFIT.

XIAP = assay: Western blot, XIAP expression in A549 cells; format: cell-based, human; conditions: 3 μM, 24 h, GAPDH as control
Procedure: (§6) The X-linked mammalian inhibitor of apoptosis protein (XIAP) and survivin, known as the inhibitor-of-apoptosis protein (IAP) members, play an important regulatory role in the caspase-dependent apoptosis. Therefore, the Western blot assay experiments were further performed to examine whether the inhibition of XIAP and survivin were involved in compounds 1–3 induced apoptosis.
as §5

survivin = assay: Western blot, survivin expression in A549 cells; format: cell-based, human; conditions: 3 μM, 24 h, GAPDH as control
Procedure: as §6, §5

[4] = Homo sapiens, A549, 24 h treatment
[5] = Homo sapiens, NCI-H1299, 24 h treatment
[6] = Homo sapiens, MRC5, 24 h treatment

SMILES	IC50 (A549 cells [1]; [4]) [µM]	IC50 (H1299 cells; [5]) [µM]	IC50 (MRC-5 cells; [6]) [µM]	IC50 (A549 cells [1]; 24 h treatment) [µM]	IC50 (H1299 cells; 24 h treatment) [µM]	IC50 (MRC-5 cells; 24 h treatment) [µM]	relative level of caspase-3 (caspase-3)	relative level of cleaved caspase-3 (cleaved caspase-3)	apoptosis incidence in A549 cells (A549 cells [2]) [%]	G0/G1-phase cells (gate C in Figure 9A) (A549 cells [3]; 5 μM, control 60.8%) [%]	cell cycle arrest, phase (A549 cells [3])	percentage of cells at the S phase (A549 cells [3]; control 10.6%, concentration not in the sentence (5 μM by Figure 9)) [%]	level of XIAP expression (XIAP)	level of survivin expression (survivin)
N.N.[Cl][Pt][Cl] [DDP, Cis-platin, reference compound]	–	–	–	13.3	24.5	49	enhanced	enhanced	–	–	–	–	–	–
O=C1C[C@@H](c2ccc(Oc3c(-c4ccc(O)cc4)oc4cc(O)cc(O)c4c3=O)cc2)Oc2cc(O)cc(O)c21 [Compound 1, (2″S)-2″,3″-dihydrodelicaflavone]	3.1	7.3	> 100	–	–	–	–	–	41.3	–	–	–	–	–
O=c1cc(-c2ccc(Oc3c(-c4ccc(O)cc4)oc4cc(O)cc(O)c4c3=O)cc2)oc2cc(O)cc(O)c12 [Compound 5, delicaflavone]	7.9	8.4	36.8	–	–	–	–	–	–	–	–	–	–	–

Further compounds by falling IC50 (A549 cells [1]; [4]), results first:

IC50 (A549 cells [1]; [4]) [µM]	IC50 (H1299 cells; [5]) [µM]	SMILES	IC50 (MRC-5 cells; [6]) [µM]	IC50 (A549 cells [1]; 24 h treatment) [µM]	IC50 (H1299 cells; 24 h treatment) [µM]	IC50 (MRC-5 cells; 24 h treatment) [µM]	relative level of caspase-3 (caspase-3)	relative level of cleaved caspase-3 (cleaved caspase-3)	apoptosis incidence in A549 cells (A549 cells [2]) [%]	G0/G1-phase cells (gate C in Figure 9A) (A549 cells [3]; 5 μM, control 60.8%) [%]	cell cycle arrest, phase (A549 cells [3])	percentage of cells at the S phase (A549 cells [3]; control 10.6%, concentration not in the sentence (5 μM by Figure 9)) [%]	level of XIAP expression (XIAP)	level of survivin expression (survivin)
3.1	6.8	Cc1c(O)cc2c(c1O)C(=O)C[C@@H](c1ccc(Oc3c(-c4ccc(O)cc4)oc4cc(O)cc(O)c4c3=O)cc1)O2 [Compound 4, (2″S)-6″-methyl-2″,3″-dihydrodelicaflavone]	58.2	–	–	–	–	–	–	–	–	–	–	–
2.8	7.3	Cc1c(O)cc2oc(-c3ccc(Oc4c(-c5ccc(O)cc5)oc5cc(O)cc(O)c5c4=O)cc3)cc(=O)c2c1O [Compound 2, 6″-methyldelicaflavone]	> 100	–	–	–	–	–	80.3	–	–	–	–	–
2.3	4	COc1cc(O)c2c(=O)c(Oc3ccc(-c4cc(=O)c5c(O)cc(O)cc5o4)cc3)c(-c3ccc(O)cc3)oc2c1 [Compound 3, 7-O-methyldelicaflavone]	> 100	–	–	–	upregulation	upregulation	82.4	45.3	S phase	24.8	suppressed	suppressed
